How the values were obtained:
[1] = tested on: weed plants such as Sinapis alba, Echinochloa crus-galli, Lolium multiflorum, Chrysanthemum segetum, Setaria viridis, Abutilon theophrasti, Amaranthus …; assay: Post-emergence effect on weeds (greenhouse pot test, visual scoring); assay type: in vivo; details: applied post-emergence (three-leaf stage) at a rate of 0.3 kg or less of active substance per hectare; scored after about 3 to 4 weeks in comparison to untreated controls
[2] = tested on: weed plants such as Sinapis alba, Chrysanthemum segetum, Avena sativa, Stellaria media, Echinochloa crus-galli, Lolium multiflorum, Setaria viridis, Abutilon …; assay: Pre-emergence effect on weeds (greenhouse pot test, visual scoring); assay type: in vivo; details: applied pre-emergence at a rate of 0.3 kg or less of active substance per hectare; scored after 3 to 4 weeks in comparison to untreated controls

SMILES	herbicidal action against weed plants (effect scored visually) [1]	herbicidal action against weed plants (visual scoring of plant damage or emergence damage) [2]
CCCOc1nn(C(=O)NS(=O)(=O)c2c(I)cccc2SC)c(=O)n1C1CC1 [Compound 1.586]	very good herbicidal action	very good herbidical action
COc1nn(C(=O)NS(=O)(=O)c2c(C)cccc2I)c(=O)n1C1CC1 [Compound 1.042]	very good herbicidal action	very good herbidical action
CCCCc1ccc(S(=O)(=O)NC(=O)n2nc(OCC)n(C3CC3)c2=O)c(I)c1 [Compound 1.887]	very good herbicidal action	very good herbidical action
COc1nn(C(=O)NS(=O)(=O)c2cccc(Cl)c2I)c(=O)n1C1CC1 [Compound 1.832]	very good herbicidal action	very good herbidical action
CCOc1nn(C(=O)NS(=O)(=O)c2c(Cl)cc(C(F)(F)F)cc2I)c(=O)n1C [Compound 1.843]	very good herbicidal action	very good herbidical action
CCOc1nn(C(=O)NS(=O)(=O)c2c(I)cccc2OCC(F)F)c(=O)n1C1CC1 [Compound 1.511]	very good herbicidal action	very good herbidical action
CCOc1nn(C(=O)NS(=O)(=O)c2c(I)cccc2OC(F)F)c(=O)n1C1CC1 [Compound 1.470]	very good herbicidal action	very good herbidical action
CCCOc1nn(C(=O)NS(=O)(=O)c2c(I)cccc2OC(F)F)c(=O)n1C [Compound 1.464]	very good herbicidal action	very good herbidical action
CCCOc1nn(C(=O)NS(=O)(=O)c2cccc(Cl)c2I)c(=O)n1C [Compound 1.830]	very good herbicidal action	very good herbidical action
CCCOc1nn(C(=O)NS(=O)(=O)c2c(Cl)ccc(Cl)c2I)c(=O)n1C [Compound 1.851]	very good herbicidal action	very good herbidical action
CC(C)Oc1nn(C(=O)NS(=O)(=O)c2c(I)cccc2OC(C)C(F)(F)F)c(=O)n1C (stereo not shown) [Compound 1.527]	very good herbicidal action	very good herbidical action
CCCOc1nn(C(=O)NS(=O)(=O)c2c(OC)ccc(Cl)c2I)c(=O)n1C [Compound 1.818]	very good herbicidal action	very good herbidical action
CCCOc1nn(C(=O)NS(=O)(=O)c2cccc(Cl)c2I)c(=O)n1C1CC1 [Compound 1.834]	very good herbicidal action	very good herbidical action
COc1nn(C(=O)NS(=O)(=O)c2c(F)cccc2I)c(=O)n1C [Compound 1.021]	very good herbicidal action	very good herbidical action
CCCOc1nn(C(=O)NS(=O)(=O)c2ccc(C(F)(F)F)cc2I)c(=O)n1C [Compound 1.894]	very good herbicidal action	very good herbidical action
Cc1ccc(S(=O)(=O)NC(=O)n2nc(OC(C)C)n(C)c2=O)c(I)c1F [Compound 1.858]	very good herbicidal action	very good herbidical action
COc1nn(C(=O)NS(=O)(=O)c2c(I)cccc2OC(C)C(F)(F)F)c(=O)n1C1CC1 (stereo not shown) [Compound 1.529]	very good herbicidal action	very good herbidical action
CCCOc1nn(C(=O)NS(=O)(=O)c2cc(C(F)(F)F)ccc2I)c(=O)n1C [Compound 1.837]	very good herbicidal action	very good herbidical action
CCCOc1nn(C(=O)NS(=O)(=O)c2c(I)cccc2OC(F)(F)F)c(=O)n1C [Compound 1.444]	very good herbicidal action	very good herbidical action
CCOc1nn(C(=O)NS(=O)(=O)c2c(I)cccc2OC(F)(F)F)c(=O)n1C [Compound 1.443]	very good herbicidal action	very good herbidical action
CCOc1nn(C(=O)NS(=O)(=O)c2c(I)cccc2C(F)(F)F)c(=O)n1C [Compound 1.136]	very good herbicidal action	very good herbidical action
CCCOc1nn(C(=O)NS(=O)(=O)c2c(I)cccc2OS(C)(=O)=O)c(=O)n1C1CC1 [Compound 1.718]	very good herbicidal action	very good herbidical action
COc1nn(C(=O)NS(=O)(=O)c2cc(C(F)(F)F)ccc2I)c(=O)n1C [Compound 1.835]	very good herbicidal action	very good herbidical action

From US7855166B2, “Sulfonylamino(thio)carbonyl compounds” (Bayer Cropscience GmbH, priority 2005, dated 2010)
